Test results taken from paper PMC8662559, “The Effects of a Novel Non-catechol Dopamine Partial Agonist on Working Memory in the Aged Rhesus Monkey” (Frontiers in Aging Neuroscience, 2021).

Columns and labels:
[1] = target: T1, human D1 receptor (Homo sapiens, UniProt P21728); test: binding assay (method of Gray et al., […]); format: cell-based
T1 construct: gene DRD1; human D1

[2] = target: T2, non-human primate D1 receptor (Macaca fascicularis, UniProt G7P6Y1); test: radioligand competition binding; format: biochemical; details: 1.0 nM [3H]-SCH23390, striatal membranes, 4 mM MgSO4, 0.5 mM EDTA, pH 7.4, 37 °C; Cheng-Prusoff
T2 construct: native receptor in striatal membrane homogenate

[3] = target: T1, human D1 receptor; test: cAMP functional assay (method of Gray et al., […]); format: cell-based; details: partial agonist

T1 sequence (P21728 whole entry): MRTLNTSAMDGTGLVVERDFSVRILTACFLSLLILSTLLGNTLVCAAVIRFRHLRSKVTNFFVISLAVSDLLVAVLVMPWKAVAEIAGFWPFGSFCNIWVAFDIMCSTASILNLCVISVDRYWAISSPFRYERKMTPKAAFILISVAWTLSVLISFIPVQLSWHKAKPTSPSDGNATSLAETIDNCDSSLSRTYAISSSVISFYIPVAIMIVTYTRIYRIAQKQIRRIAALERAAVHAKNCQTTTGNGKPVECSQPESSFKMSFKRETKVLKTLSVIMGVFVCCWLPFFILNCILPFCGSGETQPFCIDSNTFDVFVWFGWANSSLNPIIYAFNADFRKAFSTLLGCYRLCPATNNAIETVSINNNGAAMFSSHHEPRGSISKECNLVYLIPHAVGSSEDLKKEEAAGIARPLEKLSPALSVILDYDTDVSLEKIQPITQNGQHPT
T2 sequence (G7P6Y1 1-446): as the sequence (P21728 whole entry) above, with N311I counted along it

## PF-6294
[1]
  Ki: 0.017 µM
[2]
  Ki: 0.014 µM
[3]
  EC50: 0.036 µM
